Reference: ChEMBL document CHEMBL1201862, “PubChem BioAssay data set” (2004)
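In this assay, cells in 96-well plates receive the compound at five concentrations for 48 hours. Endpoints are linearly interpolated between the surrounding concentrations. GI50 marks 50% less growth.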 The source made the active and inactive calls. No stated cut-off is given here; in the data, active = GI50 up to about 1.1 µM and inactive = higher.

What was measured:
Experiment in all cases: NCI tumour cell line growth inhibition, 48 h
HCT-15 = system: HCT-15
HT-29 = system: HT-29
SK-MEL-28 = system: SK-MEL-28
RXF 393 = system: RXF 393
U-251 = system: U-251
NCI-H460 = system: NCI-H460
T47D = system: T47D
BT-549 = system: BT-549
UO-31 = system: UO-31
CCRF-CEM = system: CCRF-CEM
MDA-MB-231 = system: MDA-MB-231
HCT-116 = system: HCT-116
K562 = system: K562
SW-620 = system: SW-620
SK-OV-3 = system: SK-OV-3
786-0 = system: 786-0

SMILES	GI50 (HCT-15)	GI50 (HT-29)	GI50 (SK-MEL-28)	GI50 (RXF 393)	GI50 (U-251)	GI50 (NCI-H460)	GI50 (T47D)	GI50 (BT-549)	GI50 (UO-31)	GI50 (CCRF-CEM)	GI50 (MDA-MB-231)	GI50 (HCT-116)	GI50 (K562)	GI50 (SW-620)	GI50 (SK-OV-3)	GI50 (786-0)
COc1ccc(/C=C2\CCC(CNc3cc(C)on3)C2=O)cc1 (configuration not stated)	> 100 µM	> 100 µM (inactive)	> 100 µM (inactive)	> 21.5 µM (inactive)	> 60.1 µM (inactive)	> 78.5 µM (inactive)	33 µM (inactive)	> 78.3 µM (inactive)	> 93.1 µM (inactive)	> 100 µM (inactive)	> 82 µM (inactive)	> 100 µM (inactive)	> 100 µM (inactive)	> 100 µM (inactive)	> 92.5 µM (inactive)	> 100 µM (inactive)
O=C(O)CCCN/C(=C1\C(=O)C(=O)N(c2ccccc2)C1=O)c1ccccc1	> 100 µM	> 100 µM (inactive)	> 100 µM (inactive)	> 100 µM (inactive)	> 100 µM (inactive)	> 100 µM (inactive)	> 100 µM (inactive)	> 100 µM (inactive)	> 100 µM (inactive)	> 100 µM (inactive)	> 100 µM (inactive)	> 100 µM (inactive)	> 100 µM (inactive)	> 100 µM (inactive)	> 100 µM (inactive)	> 100 µM (inactive)
CC(=O)C(C(=O)c1ccc(C)cc1)[C@@H]1OC(C)(C)O[C@@H]1[C@H]1COC(C)(C)O1 (some centres not stated)	8.3 µM	5.21 µM (inactive)	20.8 µM (inactive)	9.62 µM (inactive)	6.41 µM (inactive)	25.1 µM (inactive)	11.4 µM (inactive)	15 µM (inactive)	12.7 µM (inactive)	1.27 µM (inactive)	10.5 µM (inactive)	3.72 µM (inactive)	2.05 µM (inactive)	3.55 µM (inactive)	51.2 µM (inactive)	6.4 µM (inactive)
C=CC1(CC[C@]2(c3ccc(OC)c(OC)c3)C=[N+]([O-])O[C@H](O[C@@H]3CCCC[C@H]3C(C)(C)c3ccccc3)C2)OCC(C)(C)CO1	8.2 µM	9.79 µM (inactive)	19.9 µM (inactive)	12.4 µM (inactive)	20 µM (inactive)	16.5 µM (inactive)	11.6 µM (inactive)	21 µM (inactive)	11.5 µM (inactive)	4.18 µM (inactive)	13.5 µM (inactive)	5.57 µM (inactive)	8.17 µM (inactive)	22.5 µM (inactive)	> 44.1 µM (inactive)	11.9 µM (inactive)
Cn1c2ccccc2c(=S)c2cc(NC(=O)CCCCC(=O)Nc3ccc4c(c3)c(=S)c3ccccc3n4C)ccc21	> 100 µM	> 100 µM (inactive)	> 100 µM (inactive)	> 100 µM (inactive)	55.8 µM (inactive)	> 100 µM (inactive)	> 100 µM (inactive)	> 100 µM (inactive)	> 100 µM (inactive)	> 100 µM (inactive)	65.9 µM (inactive)	> 100 µM (inactive)	> 100 µM (inactive)	> 100 µM (inactive)	> 100 µM (inactive)	72.1 µM (inactive)
CCOC(=O)c1cc(-n2nnc3ccccc32)cn1C	> 10 µM	> 10 µM (inactive)	> 10 µM (inactive)	> 10 µM (inactive)	> 10 µM (inactive)	> 10 µM (inactive)	> 10 µM (inactive)	> 10 µM (inactive)	> 10 µM (inactive)	> 10 µM (inactive)	> 10 µM (inactive)	> 10 µM (inactive)	> 10 µM (inactive)		> 10 µM (inactive)	> 10 µM (inactive)
Nc1ccccc1.O=C(O)C(C(F)(F)F)C(F)(F)F	14.9 µM	> 100 µM (inactive)	> 100 µM (inactive)	> 100 µM (inactive)	> 100 µM (inactive)	> 100 µM (inactive)	> 100 µM (inactive)	> 100 µM (inactive)	> 100 µM (inactive)	> 100 µM (inactive)	> 100 µM (inactive)	> 100 µM (inactive)	> 100 µM (inactive)	> 100 µM (inactive)	> 100 µM (inactive)	> 100 µM (inactive)
O=c1[nH]nc(Cc2ccccc2)n1/N=C/c1ccccc1O	> 100 µM	> 100 µM (inactive)	> 100 µM (inactive)	23.4 µM (inactive)	45 µM (inactive)	> 100 µM (inactive)	> 100 µM (inactive)	> 100 µM (inactive)	> 100 µM (inactive)	> 100 µM (inactive)	63.2 µM (inactive)	> 100 µM (inactive)	> 100 µM (inactive)	> 100 µM (inactive)	> 100 µM (inactive)	41.5 µM (inactive)
